The text below walks through data of paper PMC11317440, “Soloxolone para-methylanilide effectively suppresses aggressive phenotype of glioblastoma cells including TGF-β1-induced glial-mesenchymal transition in vitro and inhibits growth of U87 glioblastoma xenografts in mice” (Frontiers in Pharmacology, 2024).

Data set [1] has as its system U87 cells. As to the kind of experiment: MTT assay 72 h, 7 and TMZ alone and combined, synergy (HSA), U87. Format: cell-based, human. How it is done:
(§1) The drug synergy score was calculated for the dose-response matrix according to the highest single-agent (HSA) model using the SynergyFinder + web application (https://www.synergyfinder.org/).
Background: Tetrazolium dyes change colour on reduction, which living cells bring about.

For another data set, the system named is U118 cells. The experiment in a line: MTT assay 72 h, 7 and TMZ alone and combined, synergy (HSA), U118. It is filed as cell-based, human. How it is done:
as §1

A further data set relates to EPNT-5 cells. As to the kind of experiment: MTT assay 72 h, 7 and TMZ alone and combined, synergy (HSA), EPNT-5. It is filed as cell-based, mouse. As to conditions: MTT. How it is done:
as §1

The test system of data set [2] is ROS production in U87 cells. The experiment in a line: Intracellular ROS (DCFDA staining, flow cytometry), U87. It is filed as cell-based, human. Particulars: U87, TMZ 125 μM, 7 100 nM, NAC 2 mM, 72 h. The protocol: Intracellular ROS levels were measured according to previously published studies ([Han et al., 2008]; [Samandari-Bahraseman et al., 2023]; [Kopsida et al., 2024]), using the DCFDA/H2DCFDA Cellular ROS Assay Kit (Abcam, Cambridge, United Kingdom). U87 cells were incubated with 7 and TMZ with or without NAC for 72 h (n = 3). Cells were then washed with PBS and incubated with 20 µM H2DCFDA for 30 min under standard conditions, followed by the removal of H2DCFDA-containing medium and double washing with PBS.
(§2) After staining, 10,000 cells per sample were analyzed on a NovoCyte flow cytometer using NovoExpress software (ACEA Biosciences, Inc., USA).
(In general: A flow cytometer gives signals particle by particle.)

Data set [3] concerns U87 cells. As to the kind of experiment: Annexin V-FITC/propidium iodide flow cytometry, U87, 72 h, TMZ/7/NAC. Particulars: U87, TMZ 500 μM, 7 600 nM. It is filed as cell-based, human. The protocol: […] To quantify the total proportion of apoptotic cells in control and experimental groups, the events accumulated in the lower right quadrant (early apoptosis) and upper right quadrant (late apoptosis) were summarized.
as §2

The test system of data set [4] is U87 glioblastoma xenograft. The experiment in a line: U87 glioblastoma xenograft model. Format: in vivo, athymic nude mice. Particulars: end of the experiment (day 19); 7 20 mg/kg i.p., TMZ 10 mg/kg i.p. The protocol:
A xenograft model of tumor progression was induced by subcutaneous (s.c.) implantation of U87 glioblastoma cells (2×10^7 cells/mL) suspended in 0.1 mL of saline buffer into the left flank of athymic nude mice. On day 4 after tumor transplantation, the mice were divided into four groups: (1) mice received intraperitoneal (i.p.) injections of 10% Tween-80 (vehicle) (n = 6); (2) mice received i.p. injections of compound 7 in 10% Tween-80 at a dose of 20 mg/kg (n = 5); (3) mice received i.p. injections of TMZ in saline buffer at a dose of 10 mg/kg (n = 5); (4) mice received combination therapy of compound 7 and TMZ at the same dosage and administration route (n = 6). Compound 7 was administered three times per week; in total seven injections were performed. TMZ was administered daily except weekends; in total eleven injections were performed. During the experiment, the tumor volumes were determined three times per week using caliper measurements and were calculated as V = (D × d^2)/2, where D is the longest diameter of the tumor node and d is the shortest diameter of the tumor node perpendicular to D. Mice were sacrificed on day 19 after tumor transplantation and material (tumor nodes, livers, and kidneys) was collected for subsequent analysis.

Data set [5] is described as follows: Toxicity assessment in U87 glioblastoma-bearing mice. Format: in vivo, athymic nude mice. As to conditions: 7 20 mg/kg i.p. or TMZ 10 mg/kg i.p. injected alone. How it is done:
During the experiment, the general status and body weight of the animals were monitored. At the end of the experiment, livers and kidneys were collected and organ indices were calculated as (organ weight/body weight) × 100%, followed by the normalization of organ indices of experimental mice to organ indices of control mice.

Data set [6] deals with U87 glioblastoma tumor tissue. As to the kind of experiment: Histology and immunohistochemistry of U87 xenograft tumors. Format: in vivo, athymic nude mice. Particulars: day 19. How it is done:
For the histological study, the tumor specimens were fixed in 10% neutral-buffered formalin (BioVitrum, Moscow, Russia), dehydrated in ascending ethanols and xylols and embedded in HISTOMIX paraffin (BioVitrum, Russia). The paraffin sections (3–4 µm) were sliced on a Microm HM 355S microtome (Thermo Fisher Scientific, Waltham, MA, USA) and stained with hematoxylin and eosin.
For the immunohistochemical study, the tumor sections were deparaffinized and rehydrated. Antigen retrieval was carried out after exposure in a microwave oven at 700 W. The samples were incubated with anti-Ki-67 (ab16667, Abcam, Boston, MA, USA) (n = 3), anti-GFAP (ab194325, Abcam, USA) (n = 3), and anti-N-cadherin (ab76011, Abcam, USA) (n = 3) primary antibodies according to the manufacturer’s protocol. Then, the sections were incubated with secondary horseradish peroxidase (HPR)-conjugated antibodies, exposed to the 3,30-diaminobenzidine (DAB) substrate (Rabbit Specific HRP/DAB (ABC) Detection IHC Kit, ab64261, Abcam, USA) and stained with Mayer’s hematoxylin.
Five to ten random fields were examined from the tumor specimens of three mice in each group, for a total of 15–30 test fields.

The next data set relates to U87 glioblastoma cells. As to the kind of experiment: MTT cell viability assay, U87 cells, 48 h. Format: cell-based, human. As to conditions: for relative cytotoxicity: 48 h of incubation, U87; for MNTC: Homo sapiens, U-87 MG, 48 h, read-out: non-toxic concentration that reduced U87 cell viability by less than 10%. The protocol: Cells were seeded in quadruplicate in 96-well plates at 10,000 cells/well and allowed to adhere overnight. The medium was then replaced with serum-free DMEM containing increasing concentrations of soloxolone amides for 48 h. After incubation, 3-(4,5-dimethylthiazol-2-yl)-2,5-diphenyltetrazolium bromide (MTT dye) was added at a final concentration of 0.5 mg/mL and left for 2 h. The resulting formazan crystals were dissolved in DMSO and the optical density was measured at 570 nm using a Multiscan RC plate reader (Thermo LabSystems, Helsinki, Finland).

A further data set has as its system TGF-β1-treated U87 cells. The experiment in a line: Adhesion of U87 cells to culture plastic (TrypLE treatment assay). Format: cell-based, human. Particulars: TGF-β1 50 ng/mL, non-toxic concentrations, 48 h. The protocol: Adhesiveness of glioblastoma cells was assessed by two independent methods. First, cell adhesion to culture plastic was tested using a trypsin treatment assay, as previously described ([Sava et al., 2004]; [Mazuryk et al., 2015]; [van Dijk et al., 2017]). Briefly, U87 and U118 cells (10,000 cells per well of a 96-well plate, n = 4) were cultured with TGF-β1 (50 ng/mL) and non-toxic concentrations of soloxolone amides for 48 h and then treated with a 1:20 dilution of TrypLE Express (Gibco, USA) in PBS for 3 min at 37°C. Non-adherent cells were then removed by a triple PBS wash, and the remaining adherent cells were fixed with 4% formaldehyde and stained with crystal violet dye (0.1% w/v). Images were captured using the iBright 1,500 Imaging System (Invitrogen, USA), and the cell-occupied area was calculated using ImageJ. Alternatively, the number of adherent cells was quantified using the MTT assay.

The next data set has as its system TGF-β1-induced U87 cells. The experiment in a line: Cell morphology (cell size) of TGF-β1-induced U87 cells. As to conditions: TGF-β1 50 ng/mL, non-toxic concentrations, 48 h. Format: cell-based, human. How it is done:
After seeding at a concentration of 5,000 cells/well in triplicate in 96-well plates and incubating overnight, U87 and U118 cells were exposed to TGF-β1 (50 ng/mL) and non-toxic concentrations of soloxolone amides for 48 h. An EVOS XL Core microscope with an integrated CMOS camera (Thermo Fisher Scientific, USA) was then used to examine cell morphology at ×20 magnification. Aspect ratio (AR) and area were quantified for at least 150 cells in each experimental group using ImageJ software (NIH, USA).

Another data set relates to U87 primary tumorspheres. The arrangement: method as in Markov et al., 2023. As to conditions: ref Markov et al., 2023; cited from earlier work.
Data set [7] relates to U87 glioblastoma xenograft. Further details: method as in Markov et al., 2022a. As to conditions: 9 administered at a similar dose and schedule; ref Markov et al., 2022a; cited from earlier work.

Each structure is given as a SMILES string.

With `Cn1nnc2c(C(N)=O)ncn2c1=O` [TMZ, temozolomide, reference compound], the results for the IC50 in the data set with U87 cells [1] (MTT), in the data set on U118 cells (MTT) and in the data set with EPNT-5 cells were 213 µM, above 500 µM and above 500 µM, respectively. The “reduction of the cytotoxic effect by NAC” value in the data set with U87 cells [1] (U87, NAC 2 mM, TMZ 125 μM, 7 100 nM) is recorded as 22.3%; with U118 cells (U118, NAC 2 mM, TMZ 125 μM, 7 100 nM) it was 32.5%. Further, the “ROS accumulation (in words)” value in data set [2] was “did not increase ROS accumulation”. Further, the “cells in the right quadrants (apoptosis)” value in the data set with U87 cells [3] was found to be 9%. In addition, the “reduction in tumor weight compared to the vehicle” value in data set [4] is listed as 21.9 fold. Further, the “toxic effects (body weight and organ indices)” value in data set [5] is listed as “no toxic effects”. For the same compound, the “N-cadherin and GFAP levels in tumor sections (immunohistochemistry)” value in data set [6] is listed as “significantly reduced their levels”. Besides, the “reduction in the numerical density of Ki-67-positive cells compared to vehicle” value in data set [6] is reported as 9 fold.
As for `CC1(C)C(=O)C(C#N)=C[C@]2(C)C3=CC(=O)[C@@H]4[C@@H]5C[C@@](C)(C(=O)NCCCCCO)CC[C@]5(C)CC[C@@]4(C)[C@]3(C)CCC12` (stereo partly drawn) [compound 2, N-(5′-hydroxypentyl)-2-cyano-3,12-dioxo-18βH-olean-9(11),1(2)-dien-30-amide], in the data set on U87 glioblastoma cells, the relative cytotoxicity entry is recorded as “moderate” and the MNTC turned out to be 100 nM.
For `CN(C)CCNC(=O)[C@@]1(C)CC[C@]2(C)CC[C@]3(C)[C@H](C(=O)C=C4[C@@]5(C)C=C(C#N)C(=O)C(C)(C)C5CC[C@]43C)[C@@H]2C1` (stereo partly drawn) [compound 3, N-(2′-(dimethylamino)ethyl)-2-cyano-3,12-dioxo-18βH-olean-9(11),1(2)-dien-30-amide], in the data set with U87 glioblastoma cells, the relative cytotoxicity entry is “low” and the MNTC was determined as 300 nM. Further, the “adhesion of TGF-β1-treated U87 cells to culture plastic (crystal violet)” value with TGF-β1-treated U87 cells is listed as “restoring it to control levels”.
`CN(C)CCCNC(=O)[C@@]1(C)CC[C@]2(C)CC[C@]3(C)[C@H](C(=O)C=C4[C@@]5(C)C=C(C#N)C(=O)C(C)(C)C5CC[C@]43C)[C@@H]2C1` (stereo partly drawn) [compound 4, N-(3′-(dimethylamino)propyl)-2-cyano-3,12-dioxo-18βH-olean-9(11),1(2)-dien-30-amide]: in the data set with U87 glioblastoma cells, the relative cytotoxicity result is recorded as “low” and the MNTC was 300 nM.
`CC1(C)C(=O)C(C#N)=C[C@]2(C)C3=CC(=O)[C@@H]4[C@@H]5C[C@@](C)(C(=O)Nc6ccc(Br)cc6)CC[C@]5(C)CC[C@@]4(C)[C@]3(C)CCC12` (stereo partly drawn) [compound 5, N-(4′-bromophenyl)-2-cyano-3,12-dioxo-18βH-olean-9(11),1(2)-dien-30-amide]: in the data set on U87 glioblastoma cells, the relative cytotoxicity entry is “high” and the MNTC came to 50 nM. Also, the “effect on size/morphology of TGF-β1-induced U87 cells” value in the data set with TGF-β1-induced U87 cells was “restored their morphological characteristics to the control cells”.
Regarding `CC1(C)C(=O)C(C#N)=C[C@]2(C)C3=CC(=O)[C@@H]4[C@@H]5C[C@@](C)(C(=O)Nc6cccnc6)CC[C@]5(C)CC[C@@]4(C)[C@]3(C)CCC12` (stereo partly drawn) [compound 6, N-(pyridin-3-yl)-2-cyano-3,12-dioxo-18βH-olean-9(11),1(2)-dien-30-amide], in the data set on U87 glioblastoma cells, the relative cytotoxicity result is “moderate” and the MNTC stood at 100 nM.
In the case of `CC(C)(C)c1cc(CCCNC(=O)[C@@]2(C)CC[C@]3(C)CC[C@]4(C)[C@H](C(=O)C=C5[C@@]6(C)C=C(C#N)C(=O)C(C)(C)C6CC[C@]54C)[C@@H]3C2)cc(C(C)(C)C)c1O` (stereo partly drawn) [compound 8, N-(3′-(3″,5″-di-tert-butyl-4″-hydroxyphenyl)propyl)-2-cyano-3,12-dioxo-18βH-olean-9(11),1(2)-dien-30-amide], in the data set with U87 glioblastoma cells, the relative cytotoxicity entry is “high” and the MNTC came to 50 nM.
As to `CC1(C)C(=O)C(C#N)=C[C@]2(C)C3=CC(=O)[C@@H]4[C@@H]5C[C@@](C)(C(=O)NCCc6c[nH]c7ccccc67)CC[C@]5(C)CC[C@@]4(C)[C@]3(C)CCC12` (stereo partly drawn) [compound 9], in the data set on U87 glioblastoma cells, the relative cytotoxicity result is “moderate” and the MNTC is 100 nM. Moreover, the “effect on size/morphology of TGF-β1-induced U87 cells” value in the data set on TGF-β1-induced U87 cells is “restored their morphological characteristics to the control cells”. The “concentration causing a large-scale reduction of spheroids” value in the data set on U87 primary tumorspheres is recorded as 4 µM. Also, the “reduction in tumor weight compared to the vehicle-treated group” value in data set [7] was 3.4 fold.
